Measured values from ChEMBL document CHEMBL1201862, “PubChem BioAssay data set” (2004).
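96-well plates; 48 h exposure; 5 concentrations. Endpoints by linear interpolation between flanking doses. Not reached: highest tested concentration assigned. The concentration for 50% growth inhibition is given as GI50.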 Calls of active or inactive are those of the source. Rule as the data show it: active = GI50 up to about 1.1 µM and inactive = higher.

Columns and labels:
Test in all cases: NCI anticancer screen, dose series, 48 h
DLD-1 = tested on: DLD-1
M19-MEL = tested on: M19-MEL
DMS-273 = tested on: DMS-273
RXF 631 = tested on: RXF 631
DMS-114 = tested on: DMS-114
LXFL 529 = tested on: LXFL 529
KM-20L2 = tested on: KM-20L2
SNB-78 = tested on: SNB-78
XF498 = tested on: XF498

Measured: GI50

Cc1c(CC/C(=N\Nc2ccc([N+](=O)[O-])cc2[N+](=O)[O-])c2ccccc2)c2ccccc2n1C
inactive: DLD-1 > 100 µM | M19-MEL > 100 µM | DMS-273 > 100 µM | RXF 631 > 100 µM | DMS-114 > 100 µM | LXFL 529 > 100 µM | KM-20L2 > 100 µM | SNB-78 > 100 µM | XF498 > 100 µM

O=C1C=C(Nc2ccccc2C(=O)c2ccccc2)c2ccccc2C1=O
inactive: DLD-1 > 100 µM | M19-MEL 9.14 µM | DMS-273 > 100 µM | DMS-114 36.1 µM | LXFL 529 > 100 µM | KM-20L2 > 100 µM | SNB-78 > 100 µM

CCn1c2ccccc2c2c(-c3ccccc3)cc3c(c21)C(=O)N(c1ccccc1)C3=O
inactive: DLD-1 > 100 µM | M19-MEL > 100 µM | DMS-273 46.2 µM | DMS-114 > 100 µM | LXFL 529 > 100 µM | KM-20L2 > 100 µM | SNB-78 > 100 µM | XF498 > 100 µM

O=C(CCc1nnc2s/c(=C\c3ccc(Cl)cc3Cl)c(=O)n12)Nc1cc(Cl)c(Cl)cc1Cl
inactive: DLD-1 > 10 µM | M19-MEL > 10 µM | DMS-273 > 10 µM | RXF 631 71.4 µM | DMS-114 > 10 µM | LXFL 529 > 10 µM | KM-20L2 > 10 µM | SNB-78 84.1 µM | XF498 > 10 µM

CCOC(=O)CNC(SC)=C(C#N)C#N
inactive: DLD-1 > 100 µM | M19-MEL > 100 µM | DMS-273 > 100 µM | DMS-114 > 100 µM | LXFL 529 > 100 µM | KM-20L2 > 100 µM | SNB-78 > 100 µM | XF498 > 100 µM

CCOC(=O)C(=O)Nc1nc2ccc(C)cc2s1
inactive: DLD-1 > 100 µM | M19-MEL > 100 µM | DMS-273 > 100 µM | RXF 631 > 100 µM | DMS-114 > 100 µM | LXFL 529 > 100 µM | KM-20L2 > 100 µM | SNB-78 87.7 µM | XF498 > 100 µM

Cc1[nH]c2c(C)cccc2c1C1Cc2ccccc2N1 (stereo not given)
inactive: DLD-1 28.8 µM | M19-MEL 21.7 µM | DMS-114 18.2 µM | LXFL 529 17.6 µM | KM-20L2 17.1 µM | XF498 21.1 µM

N#CC(C(=N/NC(N)=S)/C(=N\NC(N)=S)C(C#N)c1ccccc1)c1ccccc1 (stereo not given)
inactive: DLD-1 > 10 µM | M19-MEL > 10 µM | DMS-273 > 10 µM | RXF 631 > 10 µM | DMS-114 > 10 µM | LXFL 529 > 10 µM | KM-20L2 > 10 µM | SNB-78 > 10 µM | XF498 > 10 µM

CC(=O)OCc1c(O)nc2c(c1O)-c1ccccc1CC2
inactive: DLD-1 71.9 µM | M19-MEL 54.3 µM | DMS-273 49.2 µM | RXF 631 69.5 µM | DMS-114 67.8 µM | LXFL 529 60 µM | KM-20L2 106 µM | XF498 56.5 µM

COCC1N=C(c2cc(OC)c(OC)c(OC)c2-c2cc3c(cc2C2OCCCO2)OCO3)O[C@H]1c1ccccc1 (stereo not given in full)
inactive: DLD-1 > 100 µM | M19-MEL > 100 µM | DMS-273 > 100 µM | DMS-114 > 100 µM | KM-20L2 > 100 µM

COc1ccc(S(=O)(=O)N/N=C/CN2C(=O)c3ccccc3C2=O)cc1
inactive: DLD-1 > 100 µM | M19-MEL > 100 µM | DMS-273 > 100 µM | LXFL 529 > 100 µM | KM-20L2 > 100 µM | XF498 > 100 µM

CC(=O)Nc1ccc(C2[C@H]3C(=O)N(c4ccc(Cc5ccc(N6C(=O)[C@@H]7ON(c8ccccc8)C(c8ccc(NC(C)=O)cc8)[C@@H]7C6=O)cc5)cc4)C(=O)[C@H]3ON2c2ccccc2)cc1 (stereo not given in full)
inactive: DLD-1 > 100 µM | M19-MEL 44.2 µM | DMS-273 > 100 µM | DMS-114 > 100 µM | LXFL 529 > 100 µM | KM-20L2 > 100 µM | SNB-78 > 100 µM

COc1ccc(C(Cc2cc(OC)c(OC)c(OC)c2)C(=O)O)cc1 (stereo not given)
inactive: DLD-1 51.1 µM | M19-MEL 45.7 µM | DMS-273 52.5 µM | RXF 631 > 100 µM | DMS-114 41 µM | KM-20L2 56 µM | SNB-78 60.1 µM | XF498 40.5 µM

COc1ccc(N2C(=O)/C(=C/c3ccc(N(CCC#N)CCC#N)cc3C)N=C2c2cc([N+](=O)[O-])ccc2Cl)cc1
inactive: DLD-1 4.51 µM | M19-MEL 17.1 µM | DMS-273 3.3 µM | DMS-114 3.32 µM | LXFL 529 7.53 µM | KM-20L2 2.31 µM | SNB-78 6.9 µM | XF498 2.34 µM

COc1cc(/C=C2\CCc3ccccc3C2=O)cc(OC)c1OC
inactive: DLD-1 13.8 µM | M19-MEL 15.9 µM | DMS-273 11.9 µM | RXF 631 22.4 µM | DMS-114 12.5 µM | LXFL 529 15.2 µM | KM-20L2 17.2 µM | SNB-78 24 µM | XF498 17.9 µM

O=C(CSc1nnc(Cc2ccccc2)o1)Nc1ccc(Cl)cc1[N+](=O)[O-]
inactive: M19-MEL 17 µM | DMS-273 19.7 µM | LXFL 529 17.1 µM | KM-20L2 22.5 µM | SNB-78 20 µM | XF498 17.5 µM

O=C1c2ccccc2N2OC3(N4CCCC4)CCCCC3C12c1ccccc1 (stereo not given)
inactive: DLD-1 20 µM | M19-MEL 10.1 µM | DMS-273 17 µM | DMS-114 15.2 µM | LXFL 529 14.5 µM | KM-20L2 43.5 µM | SNB-78 16.6 µM | XF498 22.4 µM

CCOC(=O)C(CCCNC(=O)OC(C)(C)C)N(Cc1ccc(OC)cc1OC)C(=O)CC(=O)CP(=O)(OCC)OCC (stereo not given)
inactive: DLD-1 > 100 µM | M19-MEL > 100 µM | DMS-273 > 100 µM | RXF 631 > 100 µM | DMS-114 21 µM | LXFL 529 > 100 µM | KM-20L2 > 100 µM

CCOC(=O)NNC(=O)NC12CC3CC(CC(C3)C1)C2
inactive: DLD-1 > 100 µM | M19-MEL > 100 µM | DMS-273 > 100 µM | DMS-114 > 100 µM | LXFL 529 > 100 µM | KM-20L2 > 100 µM | SNB-78 > 100 µM | XF498 > 100 µM

Cc1c2ccncc2cc2c1sc1ccncc12
inactive: DLD-1 4.18 µM | M19-MEL 3.94 µM | DMS-273 2.09 µM | RXF 631 2.25 µM | DMS-114 6.21 µM | LXFL 529 6.68 µM | KM-20L2 5.5 µM | SNB-78 13 µM | XF498 12.1 µM

COC(=O)/C=C1/CCC(C(=O)OC)N1 (stereo not given)
inactive: DLD-1 > 100 µM | M19-MEL > 100 µM | DMS-273 > 100 µM | DMS-114 > 100 µM | LXFL 529 > 100 µM | KM-20L2 > 100 µM | SNB-78 > 100 µM | XF498 > 100 µM

CCCCCCCCCCCCCC(=O)NCC(OCC)OCC
inactive: DLD-1 > 100 µM | M19-MEL > 100 µM | DMS-273 > 100 µM | DMS-114 > 100 µM | LXFL 529 > 100 µM | KM-20L2 > 100 µM | SNB-78 > 100 µM | XF498 > 100 µM
